From the supplement of paper PMC10307832

Assays:
Test in all cases: relative viability (nuclei count vs DMSO), 5 days (fraction); higher = more cells survive
NCI-H2023 = system: NCI-H2023
How it was run: (§1)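 Values are medians from duplicate plates. Each reflects relative viability, defined as the nuclei count of treated wells over that of vehicle wells. Lung cancer cell lines in 1536-well plates were pin-tool dosed one day after seeding with one drug alone or with a fixed anchor-drug dose plus five library-drug doses (not always all listed) in √10 steps, then fixed, stained and imaged at 4× after 5 days.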

H3255 = system: H3255
How it was run: as §1

NCI-H2405 = system: NCI-H2405
How it was run: as §1

NCI-H2347 = system: NCI-H2347
How it was run: as §1

NCI-H650 = system: NCI-H650
How it was run: as §1

SK-LU-1 = system: SK-LU-1
How it was run: as §1

HOP-62 = system: HOP-62
How it was run: as §1

NCI-H358 = system: NCI-H358
How it was run: as §1

NCI-H23 = system: NCI-H23
How it was run: as §1

NCI-H441 = system: NCI-H441
How it was run: as §1

NCI-H1395 = system: NCI-H1395
How it was run: as §1

NCI-H2009 = system: NCI-H2009
How it was run: as §1

BEN = system: BEN
How it was run: as §1

201T = system: 201T
How it was run: as §1

NCI-H2342 = system: NCI-H2342
How it was run: as §1

EMC-BAC-2 = system: EMC-BAC-2
How it was run: as §1

CAL-12T = system: CAL-12T
How it was run: as §1

ChaGo-K-1 = system: ChaGo-K-1
How it was run: as §1

NCI-H1650 = system: NCI-H1650
How it was run: as §1

NCI-H1734 = system: NCI-H1734
How it was run: as §1

SW 900 = system: SW 900
How it was run: as §1

NCI-H1944 = system: NCI-H1944
How it was run: as §1

HCC-15 = system: HCC-15
How it was run: as §1

LU99A = system: LU99A
How it was run: as §1

## Nc1cccc2c1CN(C1CCC(=O)NC1=O)C2=O (configuration not stated) [Lenalidomide] + COc1cc2c(Oc3ccc(NC(=O)C4(C(=O)Nc5ccc(F)cc5)CC4)cc3F)ccnc2cc1OCCCN1CCOCC1 [Foretinib] (partner 0.25 µM)
NCI-H2023; first compound 0.253 µM
  relative viability: 0.89
NCI-H2023; first compound 0.8 µM
  relative viability: 1.19
NCI-H2023; first compound 2.53 µM
  relative viability: 0.753
NCI-H2023; first compound 8 µM
  relative viability: 0.931
H3255; first compound 0.253 µM
  relative viability: 0.733
H3255; first compound 0.8 µM
  relative viability: 0.825
H3255; first compound 2.53 µM
  relative viability: 0.95
H3255; first compound 8 µM
  relative viability: 0.727
NCI-H2405; first compound 0.253 µM
  relative viability: 1.02
NCI-H2405; first compound 0.8 µM
  relative viability: 0.951
NCI-H2405; first compound 2.53 µM
  relative viability: 1.11
NCI-H2405; first compound 8 µM
  relative viability: 1.01
NCI-H2347; first compound 0.253 µM
  relative viability: 0.881
NCI-H2347; first compound 0.8 µM
  relative viability: 1.05
NCI-H2347; first compound 2.53 µM
  relative viability: 0.956
NCI-H2347; first compound 8 µM
  relative viability: 0.364
NCI-H650; first compound 0.253 µM
  relative viability: 1.02
NCI-H650; first compound 2.53 µM
  relative viability: 1.14
NCI-H650; first compound 8 µM
  relative viability: 1.01
SK-LU-1; first compound 0.253 µM
  relative viability: 0.71
SK-LU-1; first compound 0.8 µM
  relative viability: 0.727
SK-LU-1; first compound 2.53 µM
  relative viability: 1.02
SK-LU-1; first compound 8 µM
  relative viability: 0.802
HOP-62; first compound 0.253 µM
  relative viability: 0.989
HOP-62; first compound 0.8 µM
  relative viability: 1.03
HOP-62; first compound 2.53 µM
  relative viability: 1.28
HOP-62; first compound 8 µM
  relative viability: 1.2
NCI-H358; first compound 0.253 µM
  relative viability: 0.47
NCI-H358; first compound 0.8 µM
  relative viability: 0.987
NCI-H358; first compound 2.53 µM
  relative viability: 0.791
NCI-H358; first compound 8 µM
  relative viability: 0.797
NCI-H23; first compound 0.253 µM
  relative viability: 0.926
NCI-H23; first compound 0.8 µM
  relative viability: 1.13
NCI-H23; first compound 2.53 µM
  relative viability: 0.847
NCI-H23; first compound 8 µM
  relative viability: 1.03
NCI-H441; first compound 0.253 µM
  relative viability: 1
NCI-H441; first compound 0.8 µM
  relative viability: 0.722
NCI-H441; first compound 2.53 µM
  relative viability: 1.16
NCI-H441; first compound 8 µM
  relative viability: 0.795
NCI-H1395; first compound 0.253 µM
  relative viability: 0.958
NCI-H1395; first compound 0.8 µM
  relative viability: 1.09
NCI-H1395; first compound 2.53 µM
  relative viability: 1.11
NCI-H1395; first compound 8 µM
  relative viability: 0.822
NCI-H2009; first compound 0.253 µM
  relative viability: 1.24
NCI-H2009; first compound 0.8 µM
  relative viability: 1.23
NCI-H2009; first compound 2.53 µM
  relative viability: 1.32
NCI-H2009; first compound 8 µM
  relative viability: 1.22
BEN; first compound 0.253 µM
  relative viability: 0.822
BEN; first compound 0.8 µM
  relative viability: 0.583
BEN; first compound 2.53 µM
  relative viability: 0.812
BEN; first compound 8 µM
  relative viability: 0.409
201T; first compound 0.253 µM
  relative viability: 1.08
201T; first compound 2.53 µM
  relative viability: 1.23
201T; first compound 8 µM
  relative viability: 1.13
NCI-H2342; first compound 0.253 µM
  relative viability: 1.08
NCI-H2342; first compound 0.8 µM
  relative viability: 1.01
NCI-H2342; first compound 2.53 µM
  relative viability: 1.11
NCI-H2342; first compound 8 µM
  relative viability: 0.898
EMC-BAC-2; first compound 0.253 µM
  relative viability: 1
EMC-BAC-2; first compound 0.8 µM
  relative viability: 0.967
EMC-BAC-2; first compound 2.53 µM
  relative viability: 1.04
EMC-BAC-2; first compound 8 µM
  relative viability: 0.885
CAL-12T; first compound 0.253 µM
  relative viability: 1.21
CAL-12T; first compound 0.8 µM
  relative viability: 1.22
CAL-12T; first compound 2.53 µM
  relative viability: 1.23
CAL-12T; first compound 8 µM
  relative viability: 1.29
ChaGo-K-1; first compound 0.253 µM
  relative viability: 0.949
ChaGo-K-1; first compound 0.8 µM
  relative viability: 0.873
ChaGo-K-1; first compound 2.53 µM
  relative viability: 0.975
ChaGo-K-1; first compound 8 µM
  relative viability: 1.06
NCI-H1650; first compound 0.8 µM
  relative viability: 1.46
NCI-H1650; first compound 2.53 µM
  relative viability: 1.18
NCI-H1650; first compound 8 µM
  relative viability: 1.37
NCI-H1734; first compound 0.253 µM
  relative viability: 0.894
NCI-H1734; first compound 0.8 µM
  relative viability: 0.776
NCI-H1734; first compound 2.53 µM
  relative viability: 0.932
NCI-H1734; first compound 8 µM
  relative viability: 0.809
SW 900; first compound 0.253 µM
  relative viability: 0.785
SW 900; first compound 2.53 µM
  relative viability: 0.879
SW 900; first compound 8 µM
  relative viability: 0.884
NCI-H1944; first compound 0.253 µM
  relative viability: 0.871
NCI-H1944; first compound 0.8 µM
  relative viability: 0.905
NCI-H1944; first compound 2.53 µM
  relative viability: 0.911
NCI-H1944; first compound 8 µM
  relative viability: 0.848
HCC-15; first compound 0.253 µM
  relative viability: 1.03
HCC-15; first compound 0.8 µM
  relative viability: 1.04
HCC-15; first compound 2.53 µM
  relative viability: 1.17
HCC-15; first compound 8 µM
  relative viability: 1.05
LU99A; first compound 0.253 µM
  relative viability: 0.831
LU99A; first compound 0.8 µM
  relative viability: 0.789
LU99A; first compound 2.53 µM
  relative viability: 0.761
LU99A; first compound 8 µM
  relative viability: 0.599
